# Results as given in ChEMBL document CHEMBL1955826, “Acetylenic acid analogues from the edible mushroom Chanterelle (Cantharellus cibarius) and their effects on the gene expression of peroxisome proliferator-activated receptor-gamma target genes” (Bioorg Med Chem Lett, 2012).
# Calls of active or inactive are those of the source. The calls are words filed in the database; no cut-off is given here.
# Assays:
# [1] = target: T1, Peroxisome proliferator-activated receptor delta (Homo sapiens) (UniProt Q03181); assay: Agonist activity at human PPARdelta expressed in CHO cells co-transfected with pGL3-PPRE3-TK-luc assessed as transactivation at 20 ug/ml after 24 hrs by firefly luciferase reporter gene assay; format: functional, cell-based
# T1 sequence (whole entry): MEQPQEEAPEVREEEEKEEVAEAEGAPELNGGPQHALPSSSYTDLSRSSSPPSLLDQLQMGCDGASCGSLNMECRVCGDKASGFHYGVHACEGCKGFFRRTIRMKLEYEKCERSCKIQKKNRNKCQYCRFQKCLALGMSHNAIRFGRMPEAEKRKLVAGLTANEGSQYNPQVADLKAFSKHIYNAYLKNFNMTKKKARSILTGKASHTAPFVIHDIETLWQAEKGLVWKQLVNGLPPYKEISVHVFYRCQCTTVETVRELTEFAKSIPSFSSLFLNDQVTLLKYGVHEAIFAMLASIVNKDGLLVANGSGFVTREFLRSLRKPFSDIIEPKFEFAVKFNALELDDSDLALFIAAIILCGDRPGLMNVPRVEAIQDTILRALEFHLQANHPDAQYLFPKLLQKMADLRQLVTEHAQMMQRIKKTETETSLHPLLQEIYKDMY
# [2] = target: T2, Peroxisome proliferator-activated receptor gamma (Homo sapiens, UniProt P37231); assay: Agonist activity at human PPARgamma expressed in CHO cells co-transfected with pGL3-PPRE3-TK-luc assessed as transactivation after 24 hrs by firefly luciferase reporter gene assay; format: functional, cell-based
# T2 sequence (P37231 whole entry): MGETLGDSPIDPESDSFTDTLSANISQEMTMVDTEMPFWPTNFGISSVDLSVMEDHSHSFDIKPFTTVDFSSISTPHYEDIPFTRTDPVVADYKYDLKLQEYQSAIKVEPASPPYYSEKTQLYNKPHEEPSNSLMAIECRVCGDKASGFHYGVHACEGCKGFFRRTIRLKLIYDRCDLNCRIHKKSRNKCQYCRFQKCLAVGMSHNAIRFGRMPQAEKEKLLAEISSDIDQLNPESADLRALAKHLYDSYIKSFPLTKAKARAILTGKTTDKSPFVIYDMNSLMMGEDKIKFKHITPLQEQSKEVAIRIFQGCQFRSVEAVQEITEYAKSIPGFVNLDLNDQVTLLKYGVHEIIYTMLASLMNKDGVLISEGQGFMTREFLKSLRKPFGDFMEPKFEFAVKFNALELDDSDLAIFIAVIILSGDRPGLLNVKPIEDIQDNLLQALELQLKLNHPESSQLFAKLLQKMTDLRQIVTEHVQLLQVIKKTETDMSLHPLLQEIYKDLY
# [3] = target: T3, Peroxisome proliferator-activated receptor alpha (Homo sapiens) (UniProt Q07869); assay: Agonist activity at human PPARalpha expressed in CHO cells co-transfected with pGL3-PPRE3-TK-luc assessed as transactivation at 20 ug/ml after 24 hrs by firefly luciferase reporter gene assay; format: functional, cell-based
# T3 sequence (whole entry): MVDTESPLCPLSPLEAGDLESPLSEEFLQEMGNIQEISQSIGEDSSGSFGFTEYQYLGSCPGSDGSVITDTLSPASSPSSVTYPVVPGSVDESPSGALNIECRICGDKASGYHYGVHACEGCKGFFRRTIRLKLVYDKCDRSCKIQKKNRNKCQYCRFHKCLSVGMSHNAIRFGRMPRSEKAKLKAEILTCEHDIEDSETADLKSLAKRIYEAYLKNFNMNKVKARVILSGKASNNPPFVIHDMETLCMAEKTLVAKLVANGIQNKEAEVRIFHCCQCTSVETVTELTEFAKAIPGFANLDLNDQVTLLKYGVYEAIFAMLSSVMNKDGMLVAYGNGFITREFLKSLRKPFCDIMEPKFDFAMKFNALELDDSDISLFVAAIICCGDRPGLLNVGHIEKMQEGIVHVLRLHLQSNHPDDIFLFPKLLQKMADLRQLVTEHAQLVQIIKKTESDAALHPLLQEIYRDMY
# HepG2 [4] = assay: Upregulation of PPARgamma in human HepG2 cells by real-time PCR method; format: functional, cell-based
# HepG2 [5] = assay: Upregulation of PPARgamma in human HepG2 cells t 0.5 to 12.5 uM by real-time PCR method relative to control; format: functional
# [6] = target: T4, Peroxisome proliferator-activated receptor gamma (Homo sapiens) (UniProt P37231); assay: Agonist activity at PPARgamma in human HepG2 cells assessed as up-regulation of SCD-1 at 0.5 to 12.5 uM by real-time PCR method; format: functional, cell-based
# T4 sequence (whole entry): T2 sequence (P37231 whole entry)
SMILES,Activity [1],EC50 [2] [nM],Activity [3],Activity (HepG2 [4]),fold change (FC) (HepG2 [5]),Activity [6]
CCC/C=C\C#C/C=C/C(=O)CCCCCCCC(=O)O,inactive,1880,inactive,Dose-dependent effect,2.43,inactive
CCC/C=C\C#C/C=C/C(O)CCCCCCCC(=O)O (centres undefined),inactive,> 68400,inactive,,,
